# Legend:
# Assay type in all cases: cell-based, human
# KIR2DL2 promoter = KIR2DL2 promoter methylation, bisulfite sequencing and MS-PCR
# Procedure: Bisulfite conversion and DNA sequencing. Genomic DNA was isolated from T cells using FlexiGene DNA Kits (QIAGEN) then treated with sodium bisulfite as described (15). HotStar Taq (QIAGEN) was used for amplification with the following conditions: initial incubation 95° C. 15 min, then 45 cycles 95° C. 30 s, 52° C. 30 s and 72° C. 30 s. PCR products were purified using QIAEXII Gel Extraction Kits (QIAGEN), and cloned using the pGEM-T Easy Vector System (Promega, Madison, Wis.). 10 cloned fragments were sequenced for each sample by the University of Michigan Sequencing Core.
# Real-time quantitative methylation specific PCR (MSP). Three real-time MSP assays were developed for detection and quantitation of each KIR gene: one specific for the bisulfite-converted methylated sequence, one for the bisulfite-converted unmethylated sequence, and a loading control comprising primers to an adjacent bisulfite-converted sequence lacking CG pairs. MSP reactions were performed using QuantiTect SYBR Green PCR kits (QIAGEN) according to the manufacture's protocol using […] of each primer, 100 ng converted DNA and the Rotor-Gene 3000. […] Levels of amplified methylated and unmethylated fragments were standardized to the control fragment, and the methylation index calculated as […]
# KIR2DL4 = KIR2DL4 transcripts by real-time quantitative RT-PCR; conditions: relative to β-actin, p<0.001 for both
# Procedure: (§1) T cell purification and culture. Peripheral blood mononuclear cells (PBMC) were isolated from healthy donors by density gradient centrifugation, stimulated for 18 hours with 1 μg/mlphytohemagglutinin (PHA) (Murex, Norcross, Ga.), then treated or not with 5 μm 5-azacytidine (5-azaC, Sigma, St. Louis, Mo.) for 72 hours as described (6). Total T cells, CD4^+ T cells or CD8′ T cells then were purified using the pan T cell isolation kit II or the CD4^+ and CD8^+ T cell isolation kit II from Miltenyi (Auburn, Calif.). T cells were typically >94% CD3^+ by flow cytometry. Jurkat cells (E6-1) were maintained in culture as described (11). This protocol was approved by the University of Michigan Institutional Review Board.
# Real-time quantitative RT-PCR. Total RNA was isolated using the RNeasy Mini Kit (QIAGEN, Valencia, Calif.). Primers were designed to match polymorphic positions unique to KIR2DL2 or KIR2DL4 genes as described by Uhrberg et al. (13). Controls included β-actin primers as described (14). Real-time quantitative RT-PCR was performed with a Rotor-Gene 3000 (Corbett Robotics, San Francisco, Calif.) and QuantiTect SYBR Green RT-PCR kit (QIAGEN) according to manufacturer's instructions. cDNA synthesized from T cells was used to generate standard curves for β-actin, KIR2DL2 and KIR2DL4, and each experiment was repeated at least twice.
# KIR2DL2 = KIR2DL2 expression on T cells by flow cytometry
# Procedure: as §1
# Flow Cytometric Analysis. The following monoclonal antibodies were used: CYC-anti-CD3, FITC-anti-CD8, CYC-anti-CD4, FITC-anti-CD28, CYC-mouse IgG1 and FITC-mouse-IgG1 (all from BD PharMingen, San Diego, Calif.). Anti-CD158b1/b2, j-PE (GL183, reactive with KIR 2DL2/2DL3/2DS2) was obtained from Beckman Coulter Immunotech (Buckinghamshire, UK), anti-CD158d-PE (anti-KIR2DL4) from R&D Systems (Minneapolis, Minn.), and PE-mouse-IgG2A from Abcam (Cambridge Mass.). Cell staining and fixation were performed as described (2; 6), and cells analyzed using a FACSCalibur flow cytometer (BD Biosciences, Franklin Lakes, N.J.).
# Confirmation at the protein and mRNA levels. The effect of 5-azaC on KIR2DL2 and KIR2DL4 was confirmed in CD4+ and CD8+ T cells at the protein and mRNA levels. […] 5-azaC induces KIR2DL2 expression on both subsets, but a greater increase is seen on the CD8+ subset. FIG. 25b summarizes the effect of 5-azaC on KIR2DL2 expression in CD4+ and CD8+ T cells from healthy subjects. […] Since KIR is primarily expressed on CD28− T cells (24), KIR2DL2 expression was compared on CD28+ and CD28− T cells with and without 5-azaC treatment. KIR2DL2 expression increased on the CD28+ subset relative to untreated cells (1.9±0.2% vs 0.1±0.1%, 5-azaC treated vs untreated, n=3, p<0.001), but not on the CD28− subset (0.27±0.13% vs 0.30±0.18%, treated vs untreated, n=3).
compound,measurement,setting,value
"Nc1ncn([C@@H]2O[C@H](CO)[C@@H](O)[C@H]2O)c(=O)n1 [5-azaC, 5-azacytidine]","KIR2DL2 promoter methylation pattern, bisulfite sequencing","KIR2DL2 promoter; CD4+ and CD8+ cells, 5-azaC treated vs untreated",generalized demethylation throughout the region
same,"KIR2DL2 promoter methylation index, MS-PCR","KIR2DL2 promoter; CD4+ and CD8+ subsets, p<0.001",demethylates these regions in all 5 subjects
same,KIR2DL4 mRNA in CD4+ and CD8+ T cells,KIR2DL4,increase is significant on both subsets
same,KIR2DL2 expression on CD4+ and CD8+ T cells,"KIR2DL2; 5-azaC 72 h, p<0.001 for each subset",increases KIR2DL2 expression on both
same,CD4 or CD8 expression,KIR2DL2; 5-azaC treated T cells,no significant effect
same,KIR2DL2 expression on the CD28+ subset,"KIR2DL2; 5-azaC treated, untreated 0.1±0.1%, n=3, p<0.001",1.9±0.2%
same,KIR2DL2 expression on the CD28− subset,"KIR2DL2; 5-azaC treated, untreated 0.30±0.18%, n=3",0.27±0.13%
